Values after ≈ are worked out from the molar mass of the structure shown. Read-outs that look alike come from different tables or passages of the source.
What was measured:
[1] = tested on: Staphylococcus aureus ATCC 19636 (Smith); test: microbe, parasite or virus in culture; conditions: for MIC: Staphylococcus aureus
Procedure: (§1) The S. aureus strains ATCC 29213, ATCC 19636, ATCC 33591 (MRSA), BAA-1556 (MRSA USA 300) were obtained from the American Type Culture Collection (ATCC). […] The species identity was confirmed with 16S rRNA analysis.
(§2) Two broth mediums were used, Mueller Hinton Broth and RPMI 1640+5% fetal bovine serum. Test substances were evaluated in 11-point titrations and performed in duplicate.
(§3) The direct colony suspension method was used to prepare inoculated broth. Isolated colonies were taken from an 18-24 h culture plate. Optical density measurements (OD620nm) were used to estimate the bacterial density. […] The stock solutions were diluted by 2-fold serial titrations with their respective vehicles for a total of 11 concentrations.
(§4) A 4 μL aliquot of each dilution was added to 196 μL of broth medium seeded with the organism in wells of a sterilized 96 well polypropylene plate (Nunc™ 249949) using aluminum foil as cover. The final bacterial count was 2 to 8×10^5 CFU/mL. […] The final test article concentration range was 32 to 0.0313 μg/mL.
(§5) Each test substance dilution was evaluated in duplicate on one test occasion. […] Plates were incubated at 35-37° C. for 18 h. The test plates were visually examined and each well was visually scored for growth or complete inhibition of growth. The MIC value was recorded.

[2] = tested on: Staphylococcus aureus ATCC 29213; test: microbe, parasite or virus in culture; conditions: for MIC: Staphylococcus aureus
Procedure: as §1, §2, §3, §4, §5

[3] = tested on: Staphylococcus aureus ATCC 33591 (MRSA); test: microbe, parasite or virus in culture; conditions: for MIC: Staphylococcus aureus
Procedure: as §1, §2, §3, §4, §5

[4] = tested on: Staphylococcus aureus ATCC BAA-1556 (USA300, MRSA); test: microbe, parasite or virus in culture; conditions: for MIC: Staphylococcus aureus
Procedure: as §1, §2, §3, §4, §5

[5] = tested on: EMRSA-15 lung infection
Procedure: Murine EMRSA-15 lung infection model. In one embodiment this was carried out using the method described previously,^58 an overnight culture of EMRSA-15 was prepared in tryptic soy broth (TSB). EMRSA-15 was cultured in TSB overnight at 37° C., adjusted to a starting OD600 of 0.025, and grown for additional 4 h for agar beads preparation. EMRSA-15 was embedded into agar beads by mixing the overnight culture with molten tryptic soy agar, which was then spun into warmed mineral oil. The preparation was cooled and centrifuged at 2,700 g, the remaining oil was eliminated and the beads were washed in sterile PBS. The colony forming unit (cfu) content of the beads slurry was subsequently quantified on TSA plates and the beads slurry then diluted to either 2×10^7 cfu/ml in sterile PBS to deliver a final dose of either 1×10^6 cfu/mouse. Animal work was performed in accordance with the Animals (Scientific Procedures) Act of 1986 (United Kingdom). On day 0, male C57B16J mice (8-10 weeks, Charles River) were anesthetized under Isoflurane and 50 μl inoculum of EMRSA-15 embedded in agar beads (10^6 cfu/mouse) was instilled directly into the respiratory tract via oropharyngeal dosing (o.a) to reduce severity associated with surgery. Sham control mice were inoculated with sterile PBS agar beads. […] Body weight was measured daily, and animals monitored at regular intervals for signs of pain and distress. 48 hours post pulmonary infection, animals were terminally euthanized using 25% Urethane via intra-peritoneal injection. Lungs, were removed and homogenized in 2 ml PBS. Samples were serially diluted 1:10 in PBS and plated for CFU count. Lung homogenates were then centrifuged at 14000 rpm for 30 min at 4° C. and the supernatants were stored at −80° C. for future analysis. For bronchoalveolar lavage fluid collection and analysis (total and differential cell count), a 22-gauge catheter was inserted into the trachea and BAL was recovered by instillation of 0.5 ml of sterile PBS three times and total cells counts were performed by adding Turks stain in a 1:1 ratio. Total cells were then enumerated on an improved Naubauer haemocytometer. BAL fluid was then centrifuged, and supernatants were stored at −20° C. Cytospin slides were prepared and 100 μl of BAL was added into a cytospin funnel and centrifuged at 1000 rpm for 1 minute on a medium acceleration. The slides were then stained using Diff-Quick (Dade, Biomap, Italy).
More suitably Murine EMRSA-15 lung infection model was carried out using the method described previously,^58 an overnight culture of EMRSA-15 was prepared in tryptic soy broth (TSB). EMRSA-15 was cultured in TSB overnight at 37° C., adjusted to a starting OD600 of 0.025, and grown for additional 4 h for agar beads preparation. EMRSA-15 was embedded into agar beads by mixing the overnight culture with molten tryptic soy agar, which was then spun into warmed mineral oil. The preparation was cooled and centrifuged at 2,700 g, the remaining oil was eliminated, and the beads were washed in sterile PBS. The colony forming unit (CFU) content of the beads slurry was subsequently quantified on TSA plates and the beads slurry then diluted to either 2×10^7 CFU/ml in sterile PBS to deliver a final dose of either 1×10^6 CFU/mouse. Animal work was performed in accordance with the Animals (Scientific Procedures) Act of 1986 (United Kingdom). On day 0, male C57B16J mice (8-10 weeks, Charles River) were anesthetized under Isoflurane and 50 μl inoculum of EMRSA-15 embedded in agar beads (10^6 CFU/mouse) was instilled directly into the respiratory tract via oropharyngeal dosing (o.a.) to reduce severity associated with surgery. Sham control mice were inoculated with sterile PBS agar beads.

[6] = tested on: Staphylococcus aureus VRS-2 (VanA, VRSA); test: microbe, parasite or virus in culture; conditions: for MIC: Staphylococcus aureus, VRSA
Procedure: as §1, §2, §3, §4, §5

[7] = tested on: P. aeruginosa RP73 lung infection; test: Murine P. aeruginosa RP73 lung infection model; format: in vivo, mouse
[8] = tested on: HeLa; test: Cytotoxicity assay (XTT); format: cell-based, human; design: Toxicity HeLa: unit not given beside the values; conditions: unit not given
Procedure: (§6) Cytotoxicity assay. HeLa and HEK293 cell lines were purchased from ECACC and cultured in Eagle's Minimum Essential Media (EMEM) containing glutamine, supplemented with 10% FBS and 1× non-essential amino acids (NEAA) at 37° C., 10% CO2. Cytotoxicity was measured by incubating starter cultures of cells for 24 hours in a 96 well plate, gently removing the supernatant and replacing it with dilutions of peptides and controls, incubating for a further 24 hours and then staining of the cells with the second generation tetrazolium dye, XTT. […]

[9] = tested on: EMR Staphylococcus aureus-16 (EMRSA-16); format: cell-based; conditions: EMRSA16; medium and unit not given; in µg/mL
[10] = tested on: C. albicans; test: MIC on initial panels, fungi; format: cell-based; conditions: unit inferred
[11] = tested on: VS Enterococcus faecalis NCTC 775; test: Antibacterial activity assay (broth microdilution MIC); format: cell-based; conditions: VSE775; medium and unit not given; in µg/mL
[12] = tested on: HEK293; test: Cytotoxicity assay (XTT); format: cell-based, human; conditions: unit not given
Procedure: as §6

[13] = tested on: Pseudomonas aeruginosa PA01; test: Antibacterial activity assay (broth microdilution MIC); format: cell-based; conditions: medium and unit not given, in µg/mL
[14] = tested on: EMR Staphylococcus aureus-15 (EMRSA-15); format: cell-based; conditions: EMRSA15; medium and unit inferred
[15] = tested on: VRE12201; test: Antibacterial activity assay (broth microdilution MIC); format: cell-based, Enterococcus faecalis; conditions: medium and unit inferred
Source text: Antibacterial activity assay.
The bacterial strains used are as in the above examples. A table of strains is provided below to aid understanding.

[16] = tested on: Klebsiella pneumoniae M6; format: cell-based; conditions: medium and unit not given, in µg/mL
[17] = tested on: Acinetobacter baumannii AYE; format: cell-based; conditions: AYE; medium and unit not given; in µg/mL
[18] = tested on: Klebsiella pneumoniae NCTC 13368; format: cell-based; conditions: KP13368; medium and unit not given; in µg/mL
[19] = tested on: Acinetobacter baumannii ATCC 17978; format: cell-based; conditions: AB17978; medium and unit not given; in µg/mL
[20] = tested on: Pseudomonas aeruginosa NCTC 13437; test: Antibacterial activity assay (broth microdilution MIC); format: cell-based; conditions: PA13437; medium and unit not given; in µg/mL
[21] = tested on: Escherichia coli NCTC 12923; format: cell-based; conditions: EC12923; medium and unit not given; in µg/mL
[22] = tested on: MS Staphylococcus aureus ATCC 9144; format: cell-based; conditions: MSSA9144; medium and unit inferred

In the case of `CN[C@H](CC(C)C)C(=O)N[C@H]1C(=O)N[C@@H](CC(N)=O)C(=O)N[C@H]2C(=O)N[C@H]3C(=O)N[C@H](C(=O)N[C@H](C(=O)O)c4cc(O)cc(O)c4-c4cc3ccc4O)[C@H](O)c3ccc(c(Cl)c3)Oc3cc2cc(c3O[C@@H]2O[C@H](CO)[C@@H](O)[C@H](O)[C@H]2O[C@H]2C[C@](C)(N)[C@H](O)[C@H](C)O2)Oc2ccc(cc2Cl)[C@H]1O` [Vancomycin], the “susceptibility category (CLSI M100 interpretive criteria)” value (“susceptibility category” for short) ([1]; ATCC 19636 (Smith)) is reported as “S”, the MIC ([1]; ATCC19636, 18 h, read-out: MIC, antibiotic susceptibility, ATCC 19636 (Smith), CLSI M7-A10, unit inferred) is reported as 1 µg/mL (≈ 0.69 µM) and the MIC ([1]; ATCC19636, ATCC 19636 (Smith), MHB) is reported as 0.5 µg/mL (≈ 0.345 µM). For the same compound, the MIC ([1]; ATCC19636, ATCC 19636 (Smith), RPMI + 5% FBS) was 2 µg/mL, the “susceptibility category” value ([2]; ATCC 29213) was “S” and the MIC ([2]; ATCC29213, 18 h, read-out: MIC, antibiotic susceptibility, ATCC 29213, CLSI M7-A10, unit inferred) was 0.5 to 1 µg/mL (≈ 0.345 to 0.69 µM). For the same compound, the MIC ([2]; ATCC29213, ATCC 29213, MHB) was 0.5 µg/mL (≈ 0.345 µM), the MIC ([2]; ATCC29213, ATCC 29213, RPMI + 5% FBS) was 2 µg/mL and the “susceptibility category” value ([3]; ATCC 33591) was “S”. The MIC ([3]; ATCC 33591, MHB) was 1 µg/mL (≈ 0.69 µM), the MIC ([3]; ATCC 33591, RPMI + 5% FBS) was 4 µg/mL and the MIC ([3]; ATCC33591|MRSA, 18 h, read-out: MIC, antibiotic susceptibility, ATCC 33591, CLSI M7-A10, unit inferred) was 1 µg/mL (≈ 0.69 µM). The “susceptibility category” value ([4]; BAA-1556) was “S”, the MIC ([4]; ATCC BAA-1556, MHB) was 0.5 µg/mL (≈ 0.345 µM) and the MIC ([4]; ATCC BAA-1556, RPMI + 5% FBS) was 2 µg/mL. The MIC ([4]; ATCCBAA1556|BAA1556|MRSA|USA300, 18 h, read-out: MIC, antibiotic susceptibility, BAA-1556, CLSI M7-A10, unit inferred) was 0.5 to 1 µg/mL (≈ 0.345 to 0.69 µM), the “IL-6 and neutrophil recruitment in BAL” value ([5]; following therapy, i.v.) was “reduced” and the “macrophage numbers, TNFα and MCP-1 levels in BAL” value ([5]; following therapy, i.v.) was “No effects”. The “effective cumulative dose over 48 hrs” value ([5]; murine EMRSA-15 lung infection) was 200 mg/kg, the “mouse KC levels in BAL” value ([5]; vancomycin 600 mg/kg or the two higher D-pleurocidin-KR doses (15, 1.5 mg/kg cumulative)) was “KC levels to fall to that of the uninfected group” and the MIC ([6]; 18 h, read-out: MIC, antibiotic susceptibility, VRS-2, CLSI M7-A10, unit inferred) was > 64 µg/mL. For the same compound, the MIC ([6]; VRS-2, MHB) was 4 µg/mL (≈ 2.76 µM), the MIC ([6]; VRS-2, RPMI + 5% FBS) was > 32 µg/mL and the “susceptibility category” value ([6]; VRS-2) was “R”.

With `NC[C@H]1O[C@H](O[C@H]2[C@H](O)[C@@H](O[C@H]3O[C@H](CO)[C@@H](O)[C@H](N)[C@H]3O)[C@H](N)C[C@@H]2N)[C@H](N)C[C@@H]1O` [tobramycin] the “reduction in lung CFU” value ([7]; 25 mg/kg tobramycin (p=0.0919)) was 0.8 log10 and the “reduction in lung CFU” value ([7]; cumulative dose of 200 mg/kg tobramycin over 30 hours) was 1.4 log10.

With “GWGSFFRRAAHAGRHAGRAALTHYL-NH2 [D-pleuro-VAKR, 6x substituted (4 K->R plus 2 V->A), D-amino acids]” the “Toxicity HeLa” value [8] was 124.0 ± 30.4, the “MIC on initial panels” value [9] was 64 and the MIC on initial panels, Fungi [10] was 32 µg/mL. For the same compound, the “MIC on initial panels” value [11] was 32-64, the “Toxicity HEK293” value [12] was 201.2 ± 25.1 and the “MIC on initial panels” value [13] was 4. The MIC on initial panels [14] was 32 µg/mL, the MIC on initial panels [15] was 128 µg/mL and the “MIC on initial panels” value [16] was 4. For the same compound, the “MIC on initial panels” value [17] was 2, the “MIC on initial panels” value [18] was 4-8 and the “MIC on initial panels” value [19] was 2. The “MIC on initial panels” value [20] was 32, the “MIC on initial panels” value [21] was 2 and the MIC on initial panels [22] was 8 µg/mL.
